From patent US11084784B2, “ROR-gamma modulators and uses thereof” (PIRAMAL ENTERPRISES LIMITED, priority 2014, dated 2021)

target: RORγt (Homo sapiens (Human), UniProt P51449); assay: RORγt luciferase reporter assay in CHO-K1 cells (RORgamma inhibitory activity); format: cell-based; settings: CHO-K1 cells stably transfected with RORγt, transiently transfected with pFR Luc; 18-20 hours treatment; luminescence; read-out: In-vitro IC50 value IC50
Sequence (P51449 other isoform, or with tags, fused parts or gaps, species assumed): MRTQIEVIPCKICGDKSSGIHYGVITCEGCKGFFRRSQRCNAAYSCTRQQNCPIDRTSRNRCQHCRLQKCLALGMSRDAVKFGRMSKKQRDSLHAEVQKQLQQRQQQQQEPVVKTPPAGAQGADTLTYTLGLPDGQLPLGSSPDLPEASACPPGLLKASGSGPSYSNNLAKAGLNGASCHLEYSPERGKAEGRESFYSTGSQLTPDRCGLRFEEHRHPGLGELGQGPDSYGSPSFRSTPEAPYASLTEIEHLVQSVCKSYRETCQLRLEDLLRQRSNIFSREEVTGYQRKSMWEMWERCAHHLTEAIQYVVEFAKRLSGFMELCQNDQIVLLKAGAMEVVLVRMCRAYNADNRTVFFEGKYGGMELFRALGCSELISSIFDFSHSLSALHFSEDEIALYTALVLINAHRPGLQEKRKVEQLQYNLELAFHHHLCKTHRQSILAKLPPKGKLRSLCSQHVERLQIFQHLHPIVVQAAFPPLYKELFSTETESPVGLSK
Description: The representative compounds are referred to as the test compounds.
CHO-K1 cells stably transfected with RORγt are maintained in MEM-EBS with 5% FBS, 1% penicillin streptomycin solution and 1 mg/mL G418. The cells are seeded at a density of 200000 cells/mL in white 96 well flat bottom plate. Post 16-18 hours incubation, the cells are transiently transfected with pFR Luc (50 ng/well DNA) for four hours. The cells are then treated with different doses of the test compounds in MEM EBS media with 10% FBS and 1% penicillin streptomycin. DMSO is used as vehicle control. After 18-20 hours treatment, the cells are lysed with lysis buffer (40 mM HEPES, 20 mM EGTA, 50 mM β-glycerophosphate, 10% glycerol and 1% Triton X-100 in distilled water) for 0.5 hour and luminescence is read using Tecan Safire reader at 1000 milli second integration time.

| Structure (SMILES) | IC50 [nM] |
| --- | --- |
| CCS(=O)(=O)c1ccc(CC(=O)Nc2ccc(C3CCCCC3)cc2)cc1 [Example 25, N-(4-Cyclohexylphenyl)-2-(4-(ethylsulfonyl)phenyl)acetamide] | 0.01 to 50 |
| CCS(=O)(=O)c1ccc(CC(=O)Nc2ccc(OC3CCCCC3)c(C(F)(F)F)c2)cc1 [Example 23, N-(4-(Cyclohexyloxy)-3-(trifluoromethyl)phenyl)-2-(4-(ethylsulfonyl)phenyl)acetamide] | 50 to 100 |
| CCS(=O)(=O)c1ccc(CC(=O)Nc2ccc(C3=CCC(O)CC3)c(C(F)(F)F)c2)cc1 (centres unmarked) [Example 34, 2-(4-(Ethylsulfonyl)phenyl)-N-(4′-hydroxy-2-(trifluoromethyl)-2′,3′,4′,5′-tetrahydro-[1,1′-biphenyl]-4-yl)acetamide] | 0.01 to 50 |
| CCS(=O)(=O)c1ccc(CC(=O)Nc2ccc(C3=CCC(=O)CC3)c(C(F)(F)F)c2)cc1 [Example 24, 2-(4-(Ethylsulfonyl)phenyl)-N-(4′-oxo-2-(trifluoromethyl)-2′,3′,4′,5′-tetrahydro-[1,1′-biphenyl]-4-yl)acetamide] | 0.01 to 50 |
| CCS(=O)(=O)c1ccc(CC(=O)Nc2ccc3c(c2)CCCC3(O)c2ccc(OC)cc2)cc1 (centres unmarked) [Example 43, 2-(4-(Ethylsulfonyl)phenyl)-N-(5-hydroxy-5-(4-methoxyphenyl)-5,6,7,8-tetrahydronaphthalen-2-yl)acetamide] | 0.01 to 50 |
